Test [1] relates to PAF-induced aggregation of human thrombocytes. Nature of the test: PAF-induced aggregation of human thrombocytes in vitro (inhibition of blood platelet aggregation). Type of test: cell-based. The settings on record: read-out: IC50 value PAF. How it is done:
The PAF-antagonistic activity of some compounds of formulae Ia and Ib was tested in vitro on the inhibition of blood platelet aggregation.
1. Tests in vitro: inhibition of blood platelet aggregation
The PAF-induced aggregation of human thrombocytes in vitro was used to determine the PAF antagonistic activity of substances. In order to obtain thrombocyte-rich plasma (TRP) blood is taken from an uncongested vein using a plastic syringe which contains 3.8% sodium citrate solution. The ratio of sodium citrate solution to blood is 1:9. After careful mixing the citrated blood is centrifuged for 20 minutes at 150×g (1200 rpm). The thrombocyte aggregation is measured using the method developed by Born and Cross (G. V. R. Born and M. J. Cross, J. Physiol. 168, 178 (1963)), with PAF being added to the TRP with constant stirring to initiate aggregation.
The test substance is added in a volume of 10 μl 2-3 minutes before aggregation is initiated. The solvent used is either distilled water, ethanol and/or dimethyl sulphoxide. Control mixtures are given corresponding volumes of these solvents. After the initial absorption has been recorded (2-3 minutes) aggregation is induced with PAF (5×10^-8 M).
The peak of the first aggregation wave is used in order to assess the effects of the substance. The PAF-induced maximum absorption rate (=maximum aggregation×100%) is tested at the same time in a parallel mixture (=control mixture in one of the channels of the 2-channel aggregometer) to each test mixture (second channel) and used as a 100% value. The aggregation value achieved under the influence of the test substance is […].
Each test substance is tested at concentrations of from 10^-3 to 10^-8 M with a random sampling scope of n=4 to determine any inhibitory activity on the PAF-induced thrombocyte aggregation. A concentration-activity curve is then drawn up from 3 concentrations and the IC50 is determined (concentration for a 50% inhibition of aggregation). With some compounds, only approximate tests for guidance are carried out.

The next test addresses benzodiazepine receptor. Nature of the test: benzodiazepine receptor bonding test using [^3 H] flunitrazepam as radioligand (FNB). Type of test: binding.
The subject of another test is PAF. The settings on record: PAF-antagonistic activity; Kornecki et al.; read-out: IC50 (concentration for a 50% inhibition of aggregation); cited from earlier work.
Test [2] relates to PAF-induced aggregation of human thrombocytes. The settings on record: PAF-antagonistic activity known from European Patent Application No. 176 927; read-out: IC50 (the concentration at which a 50% inhibition of aggregation is measured); cited from earlier work.
[3] abbreviates: [^3 H] flunitrazepam, racemate tested unless otherwise noted, read-out: IC50 value FNB (flunitrazepam bonding test).
Where [4] appears, read: [^3 H] flunitrazepam as radioligand, read-out: value in the benzodiazepine receptor bonding test.
The mark [5] stands for this setting: inhibition of PAF-induced (5×10^-8 M) human thrombocyte aggregation, racemate tested unless otherwise noted.

These results are taken from patent US5532233A, “Hetrazepine compounds which have useful pharmaceutical utility” (priority 1986, dated 1996).

Like-named read-outs stand apart in the source and are kept apart here.

Take `Cc1nnc2n1-c1ccc(Cl)cc1C(c1ccccc1)=NC2` [Alprazolam, reference compound]: the IC50 in test [1] (Homo sapiens) is 14 µM; at benzodiazepine receptor (setting [3]) it was 0.0055 µM; in the test with PAF it was 14 µM.
In the case of `Cc1nnc2n1-c1sc3c(c1C(c1ccccc1Cl)=NC2)CCCC3` [Compound (A), 6-(2-chlorophenyl)-11-methyl-2,3,4,5-tetrahydro-8H-[1]benzothieno[3,2-f][1,2,4]triazolo[4,3-a][1,4]diazepine, reference compound], the IC50 in test [1] (Homo sapiens) is under 2.5 µM; on benzodiazepine receptor (setting [4]), 0.021 µM; on benzodiazepine receptor (setting [3]), 0.021 µM; in test [2], 2.5 µM.
Consider `Cc1nnc2n1-c1sc3c(c1C(c1ccccc1Cl)=NC2)CCNC3` [Compound (B), 6-(2-chlorophenyl)-11-methyl-2,3,4,5-tetrahydro-8-H-pyrido[4',3':4,5]thieno-[3,2-f][1,2,4]triazolo[4,3-a][1,4]diazepine, reference compound], for which the IC50 in test [1] (Homo sapiens) was under 7 µM; on benzodiazepine receptor (setting [4]), 0.035 µM; on benzodiazepine receptor (setting [3]), 0.035 µM; in test [2], 10 µM.
With `Cc1nnc2n1-c1sc3c(c1C(c1ccccc1Cl)=NC2)CC(C(=O)N1CCOCC1)CC3` (stereo not shown) [Example 1, 4-(Morpholin-4-yl-carbonyl)-6-(2-chlorophenyl)-11-methyl-2,3,4,5-tetrahydro-8H-[1]benzothieno[3,2-f][1,2,4]triazolo[4,3-a][1,4]diazepine], the IC50 in test [1] (Homo sapiens) is 0.5 µM; at benzodiazepine receptor (setting [3]), over 5 µM.
For `Cc1nnc2n1-c1sc3c(c1C(c1ccccc1Cl)=NC2)CCC(C(=O)N1CCOCC1)C3` (stereo not shown) [Example 2, 3-(Morpholin-4-yl-carbonyl)-6-(2-chlorophenyl)-11-methyl-2,3,4,5-tetrahydro-8H-[1]benzothieno[3,2-f][1,2,4]triazolo[4,3-a][1,4]diazepine], in that order: 2.5 µM and over 5 µM.
The corresponding values for `Cc1nnc2n1-c1sc3c(c1C(c1ccccc1Cl)=NC2)CC(C(=O)N1CCOCC1)C3` (stereo not shown) [Example 7, 3-(Morpholin-4-yl-carbonyl)-5-(2-chlorophenyl)-10-methyl-3,4-dihydro-2H,7H-cyclopenta[4,5]thieno[3,2-f][1,2,4]triazolo[4,3-a][1,4]diazepine] are 0.3 µM and 3.6 µM.
On to `Cc1cnc2n1-c1sc3c(c1C(c1ccccc1Cl)=NC2)CC(C(=O)N1CCOCC1)CC3` (stereo not shown) [Example 10, 4-(Morpholin-4-yl-carbonyl)-6-(2-chlorophenyl)-11-methyl-2,3,4,5-tetrahydro-8H-[1]benzothieno[3,2-f]imidazo[1,2-a][1,4]diazepine], for which the IC50 in test [1] (setting [5]) turned out to be 0.3 µM.
`CCN(CC)C(=O)C1CCc2sc3c(c2C1)C(c1ccccc1Cl)=NCc1ncc(C)n1-3` (stereo not shown) [Example 11]: the IC50 in test [1] (Homo sapiens) stood at 0.5 µM; at benzodiazepine receptor (setting [3]), 5 µM.
For `Cc1nnc2n1-c1sc3c(c1C(c1ccccc1Cl)=NC2)CC(CO)CC3` (stereo not shown) [Example 17, 4-(Hydroxymethyl)-6-(2-chlorophenyl)-11-methyl-2,3,4,5-tetrahydro-8H-[1]benzothieno[3,2-f][1,2]triazolo[4,3-a][1,4]diazepine], in that order: 1.8 µM and 1.07 µM.
Consider `OCC1Cc2sc3c(c2C1)C(c1ccccc1Cl)=NCc1nncn1-3` (stereo not shown) [Example 18, 3-(Hydroxymethyl)-5-(2-chlorophenyl)-3,4-dihydro-2H,7H-cyclopenta[4,5]thieno[3,2-f][1,2,4]triazolo[4,3-a][1,4]diazepine], for which the IC50 in test [1] (setting [5]) was 1.3 µM.
The same measure, in the same setting: with `CC(=O)OCC1Cc2sc3c(c2C1)C(c1ccccc1Cl)=NCc1nnc(C)n1-3` (stereo not shown) [Example 19, 3-Acetoxymethyl-5-(2-chlorophenyl)-10-methyl-3,4-dihydro-2H,7H-cyclopenta[4,5]thieno[3,2-f][1,2,4]triazolo[4,3-a][1,4]diazepine] the figure was 0.6 µM.
For `Cc1nnc2n1-c1sc3c(c1C(c1ccccc1Cl)=NC2)CC(CN1CCOCC1)CC3` (stereo not shown) [Example 21, 4-(N-Morpholinomethyl)-6-(2-chlorophenyl)-11-methyl-2,3,4,5-tetrahydro-8H-[1]benzothieno[3,2-f][1,2,4]triazolo[4,3-a][1,4]-diazepine], the IC50 in test [1] (Homo sapiens) was 0.3 µM; on benzodiazepine receptor (setting [3]), over 5 µM.
The corresponding values for `CC(=S)N1CCc2c(sc3c2C(c2ccccc2Cl)=NCc2nnc(C)n2-3)C1` [Example 25, 3-Thioacetyl-6-(2-chlorophenyl)-11-methyl-2,3,4,5-tetrahydro-8H-pyrido[4',3':4,5]thieno[3,2-f][1,2,4]triazolo[4,3-a][1,4]diazepine] are 1 µM and 2.3 µM.
Take `Cc1nnc2n1-c1sc3c(c1C(c1ccccc1Cl)=NC2)CC(C1=NCCN1)CC3` (stereo not shown) [Example 33, 4-[2-Imidazolin-2-yl]-6-(2-chlorophenyl)-2,3,4,5-tetrahydro-8H-[1]benzothieno[3,2-f][1,2,4]triazolo[4,3-a][1,4]diazepine]: the IC50 in test [1] (setting [5]) is 2.3 µM.
Turning to `CCN(CC)C(=O)C1CCc2c(sc3c2C(c2ccccc2Cl)=NCc2nnc(C)n2-3)C1` (stereo not shown) [Example 35], the IC50 in test [1] (Homo sapiens) is 3.3 µM; on benzodiazepine receptor (setting [3]), over 5 µM.
For `CCN(CC)C(=O)C1CCc2sc3c(c2C1)C(c1ccccc1Cl)=NCc1nnc(C)n1-3` (stereo not shown) [Example 36], in that order: 0.4 µM and over 5 µM.
Consider `Cc1nnc2n1-c1sc3c(c1C(c1ccccc1Cl)=NC2)CC(C(=O)N1CCN(C)CC1)CC3` (stereo not shown) [Example 37], for which the IC50 is 1.8 µM in test [1] (Homo sapiens) and over 5 µM on benzodiazepine receptor (setting [3]).
For `Cc1nnc2n1-c1sc3c(c1C(c1ccccc1Cl)=NC2)CC(C(=O)N(C)CCO)CC3` (stereo not shown) [Example 38], the IC50 in test [1] (setting [5]) came to 2.7 µM.
Take `Cc1nnc2n1-c1sc3c(c1C(c1ccccc1Cl)=NC2)C(C(=O)N(C)C)CC3` (stereo not shown) [Example 46]: the values for the IC50 (in test [1] (Homo sapiens); at benzodiazepine receptor (setting [3])) were 4.8 µM and 1.46 µM, respectively.
For `Cc1nnc2n1-c1sc3c(c1C(c1ccccc1Cl)=NC2)CC(C(=O)NCC(=O)N1CCOCC1)C3` (stereo not shown) [Example 58], in that order: 0.4 µM and 0.38 µM.
`CC(=O)OCC1CCc2sc3c(c2C1)C(c1ccccc1Cl)=NCc1nnc(C)n1-3` (stereo not shown) [Example 62]: the IC50 in test [1] (Homo sapiens) amounted to 0.4 µM; at benzodiazepine receptor (setting [3]), 4.6 µM.
With `Cc1cnc2n1-c1sc3c(c1C(c1ccccc1Cl)=NC2)CC(Cn1cncn1)CC3` (stereo not shown) [Example 63], the results for the IC50 (in test [1] (Homo sapiens); on benzodiazepine receptor (setting [3])) were 0.4 µM and over 5 µM, respectively.
Take `Cc1cnc2n1-c1sc3c(c1C(c1ccccc1Cl)=NC2)CC(CO)CC3` (stereo not shown) [Example 64]: in test [1] (setting [5]), the IC50 amounted to 0.8 µM.
`Cc1nnc2n1-c1sc3c(c1C(c1ccccc1Cl)=NC2)CC(CN1CCOCC1)C3` (stereo not shown) [Example 66]: the IC50 is under 0.2 µM in test [1] (Homo sapiens) and 0.92 µM on benzodiazepine receptor (setting [3]).
As for `CC(=O)OCC1Cc2sc3c(c2C1)C(c1ccccc1Cl)=NCc1nncn1-3` (stereo not shown) [Example 68], the IC50 in test [1] (setting [5]) was 0.4 µM.
Consider `Cc1nnc2n1-c1sc3c(c1C(c1ccccc1Cl)=NC2)CC(C1=NCCO1)CC3` (stereo not shown) [Example 79], for which the results for the IC50 (in test [1] (Homo sapiens); at benzodiazepine receptor (setting [3])) were 2.2 µM and 4.8 µM, respectively.
`Cc1nnc2n1-c1sc3c(c1C(c1ccccc1Cl)=NC2)CC(C1=NC(C)(C)CN1)CC3` (stereo not shown) [Example 83]: in test [1] (setting [5]), the IC50 was determined as 0.9 µM.
Consider `CC(=O)NCC(=O)N1CCc2c(sc3c2C(c2ccccc2Cl)=NCc2nnc(C)n2-3)C1` [Example 86, 3-Acetylaminomethylcarbonyl-6-(2-chlorophenyl)-11-methyl-2,3,4,5-tetrahydro-8H-pyrido[4',3':4,5]thieno[3,2-f][1,2,4]triazolo[4,3-a][1,4]diazepine], for which the results for the IC50 (in test [1] (Homo sapiens); at benzodiazepine receptor (setting [3])) were 1 µM and over 5 µM, respectively.
The corresponding values for `Cc1cnc2n1-c1sc3c(c1C(c1ccccc1Cl)=NC2)CC(CN1CCOCC1)C3` (stereo not shown) [Example 113] are under 0.2 µM and 3 µM.
In the case of `Cc1nnc2n1-c1ccc(Cl)cc1C(c1ccccc1Cl)=NC2` [Triazolam, reference compound], the IC50 in test [1] (Homo sapiens) is 9 µM; on benzodiazepine receptor (setting [3]) it was 0.0014 µM; in the test with PAF, 9 µM.
